According to ChEMBL document CHEMBL5338761 (J Med Chem, 2023):

Tests used:
DNA polymerase theta [1] = target: T1, DNA polymerase theta (Homo sapiens, UniProt O75417); experiment: Inhibition of POLQ (unknown origin) incubated for 15 mins in presence of ATP and NADPH by absorbance based analysis
DNA polymerase theta [2] = target: T1, DNA polymerase theta; experiment: Inhibition of POLQ PD (unknown origin) (1819 to 2590 residues) incubated for 15 mins by luminescence based analysis
DNA polymerase theta [3] = target: T1, DNA polymerase theta; experiment: Inhibition of POLQ PD (unknown origin) (1819 to 2590 residues) incubated for 15 mins by fluorescence based analysis
MCF7 = experiment: Antiproliferative activity against human MCF7 cells assessed as inhibition of cell growth incubated for 6 days by CellTiter-Glo assay; format: functional, cell-based; settings: MCF7, 144 h
A549 = experiment: Antiproliferative activity against human A549 cells assessed as inhibition of cell growth incubated for 6 days by CellTiter-Glo assay; format: functional, cell-based; settings: A549, 144 h
TERT-RPE1 [4] = experiment: Antiproliferative activity against BRCA1 knockout human RPE-1 cells assessed as inhibition of cell growth by CellTiter-Glo assay; format: functional, cell-based
DNA polymerase theta [5] = target: T1, DNA polymerase theta; experiment: Inhibition of POLQ (unknown origin) (1 to 987 residues) using […] as substrate incubated for 30 mins in presence of ATP relative to control
[6] = Antiproliferative activity against human MDA-1986 cells assessed as inhibition of cell growth incubated for 6 days by CellTiter-Glo assay; format: functional, cell-based; settings: MDA1986, 144 h
HCT-116 = experiment: Antiproliferative activity against human HCT-116 cells assessed as inhibition of cell growth incubated for 6 days by CellTiter-Glo assay; format: functional, cell-based; settings: HCT-116, 144 h
TERT-RPE1 [7] = experiment: Antiproliferative activity against human RPE-1 cells expressing wild type BRCA1 assessed as inhibition of cell growth by CellTiter-Glo assay; format: functional, cell-based
PC-3 = experiment: Antiproliferative activity against human PC-3 cells assessed as inhibition of cell growth incubated for 6 days by CellTiter-Glo assay; format: functional, cell-based; settings: PC-3, 144 h
DNA polymerase theta [8] = target: T1, DNA polymerase theta; experiment: Inhibition of POLQ (unknown origin); format: single protein
DNA polymerase theta [9] = target: T1, DNA polymerase theta; experiment: Inhibition of N-terminal/C-termianl Flag-tagged POLQ (unknown origin) (2 to 2590 residues) expressed in baculovirus incubated for 30 mins by fluorescence based analysis
DNA polymerase theta [10] = target: T1, DNA polymerase theta; experiment: Inhibition of POLQ PD (unknown origin) (1819 to 2590 residues) by fluorescence based analysis
TERT-RPE1 [11] = experiment: Antiproliferative activity against P53 knockout human RPE-1 cells assessed as inhibition of cell growth by CellTiter-Glo assay; format: functional, cell-based
TERT-RPE1 [12] = experiment: Antiproliferative activity against BRCA1 knockout human RPE-1 cells assessed as fold change in rucaparib IC50 by CellTiter-Glo assay; format: functional
TERT-RPE1 [13] = experiment: Antiproliferative activity against P53 and BRCA1 knockout human RPE-1 cells assessed as inhibition of cell growth by CellTiter-Glo assay; format: functional, cell-based
TOV21G = experiment: Antiproliferative activity against HR knockout human TOV-21G cells assessed as fold change in olaparib IC50 by CellTiter-Glo assay; format: functional

T1 sequence (O75417 whole entry, the tested form may be a part): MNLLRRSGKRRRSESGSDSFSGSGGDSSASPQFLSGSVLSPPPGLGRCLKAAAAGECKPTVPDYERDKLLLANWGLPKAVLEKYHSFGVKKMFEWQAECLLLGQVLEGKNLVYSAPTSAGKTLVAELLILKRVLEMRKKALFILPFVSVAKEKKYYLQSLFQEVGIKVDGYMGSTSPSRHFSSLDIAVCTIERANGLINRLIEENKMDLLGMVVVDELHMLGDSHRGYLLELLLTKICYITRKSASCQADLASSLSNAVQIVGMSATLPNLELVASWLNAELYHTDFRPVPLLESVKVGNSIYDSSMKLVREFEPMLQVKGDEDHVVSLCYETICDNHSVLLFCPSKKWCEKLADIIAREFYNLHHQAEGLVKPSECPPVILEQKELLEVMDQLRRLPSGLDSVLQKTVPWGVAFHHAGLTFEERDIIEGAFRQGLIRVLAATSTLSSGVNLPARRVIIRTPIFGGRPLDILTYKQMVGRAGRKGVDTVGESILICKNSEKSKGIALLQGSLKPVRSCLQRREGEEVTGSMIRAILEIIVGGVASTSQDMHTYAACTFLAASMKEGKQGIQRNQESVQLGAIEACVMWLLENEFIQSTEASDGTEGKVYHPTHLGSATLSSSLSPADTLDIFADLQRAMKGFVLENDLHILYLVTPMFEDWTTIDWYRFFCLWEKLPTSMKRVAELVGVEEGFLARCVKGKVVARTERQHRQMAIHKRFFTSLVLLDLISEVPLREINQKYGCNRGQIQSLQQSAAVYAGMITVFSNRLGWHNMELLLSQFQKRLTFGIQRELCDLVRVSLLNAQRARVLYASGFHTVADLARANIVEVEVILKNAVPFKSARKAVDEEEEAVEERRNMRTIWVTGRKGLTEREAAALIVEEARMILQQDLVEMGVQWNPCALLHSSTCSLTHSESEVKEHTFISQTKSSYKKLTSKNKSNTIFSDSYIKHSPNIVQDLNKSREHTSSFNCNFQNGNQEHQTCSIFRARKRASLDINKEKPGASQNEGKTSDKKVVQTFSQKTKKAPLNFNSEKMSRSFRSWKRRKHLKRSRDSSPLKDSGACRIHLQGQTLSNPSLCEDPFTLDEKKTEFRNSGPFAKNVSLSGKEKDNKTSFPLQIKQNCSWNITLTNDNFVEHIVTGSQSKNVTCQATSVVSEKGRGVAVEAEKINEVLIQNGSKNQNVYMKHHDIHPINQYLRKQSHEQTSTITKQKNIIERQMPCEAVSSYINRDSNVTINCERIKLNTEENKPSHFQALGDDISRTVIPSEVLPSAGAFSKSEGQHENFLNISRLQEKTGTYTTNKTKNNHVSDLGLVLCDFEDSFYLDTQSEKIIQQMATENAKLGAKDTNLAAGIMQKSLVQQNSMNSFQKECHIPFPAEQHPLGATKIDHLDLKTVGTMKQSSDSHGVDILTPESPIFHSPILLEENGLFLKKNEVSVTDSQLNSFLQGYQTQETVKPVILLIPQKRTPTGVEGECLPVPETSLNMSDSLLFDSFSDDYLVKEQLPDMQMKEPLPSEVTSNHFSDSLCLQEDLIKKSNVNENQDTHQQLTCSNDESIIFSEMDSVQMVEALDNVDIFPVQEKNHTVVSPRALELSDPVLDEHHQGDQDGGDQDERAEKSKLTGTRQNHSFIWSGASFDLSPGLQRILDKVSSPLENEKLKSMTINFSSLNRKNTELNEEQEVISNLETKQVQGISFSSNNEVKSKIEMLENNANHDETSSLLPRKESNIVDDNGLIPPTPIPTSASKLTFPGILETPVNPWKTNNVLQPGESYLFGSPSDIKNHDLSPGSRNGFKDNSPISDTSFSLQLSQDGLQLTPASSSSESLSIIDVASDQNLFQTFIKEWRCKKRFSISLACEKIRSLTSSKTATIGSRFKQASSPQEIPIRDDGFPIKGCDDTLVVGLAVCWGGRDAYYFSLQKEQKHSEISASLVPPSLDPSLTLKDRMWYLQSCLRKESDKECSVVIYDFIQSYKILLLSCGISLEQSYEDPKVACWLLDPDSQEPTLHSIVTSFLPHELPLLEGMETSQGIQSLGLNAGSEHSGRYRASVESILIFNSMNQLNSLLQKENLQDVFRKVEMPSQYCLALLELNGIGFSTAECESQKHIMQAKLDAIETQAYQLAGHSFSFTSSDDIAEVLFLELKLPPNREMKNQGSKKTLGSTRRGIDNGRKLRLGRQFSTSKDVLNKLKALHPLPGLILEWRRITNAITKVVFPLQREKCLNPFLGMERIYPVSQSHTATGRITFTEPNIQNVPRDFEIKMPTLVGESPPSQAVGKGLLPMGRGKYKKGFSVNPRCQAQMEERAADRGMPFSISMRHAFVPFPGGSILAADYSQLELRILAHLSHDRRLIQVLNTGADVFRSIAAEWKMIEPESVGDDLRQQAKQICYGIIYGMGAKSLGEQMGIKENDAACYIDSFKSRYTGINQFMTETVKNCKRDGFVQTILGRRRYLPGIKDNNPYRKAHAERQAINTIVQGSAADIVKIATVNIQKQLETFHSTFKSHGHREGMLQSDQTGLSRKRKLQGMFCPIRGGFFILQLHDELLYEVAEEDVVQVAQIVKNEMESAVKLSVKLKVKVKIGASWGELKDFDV

Work on `COc1cnc(Cl)cc1-c1cc(C)ncc1C(=O)Nc1nnc(OCc2ccc(Cl)cn2)s1` yielded an IC50 (DNA polymerase theta [1]) of at most 200 nM.
`Cc1nc(SCC(=O)N(C)c2ccccc2)c(C#N)c(C)c1Cl` gave an IC50 (DNA polymerase theta [2]) of 200 nM and an IC50 (DNA polymerase theta [3]) of 200 nM.
For `Cc1c(OC2CCN(C)CC2)ccc2cc(NC(=O)Nc3ccc(C(F)(F)F)cc3)c(=O)oc12`, the IC50 (MCF7) was 460 nM, the IC50 (A549) was 130 nM and the IC50 (TERT-RPE1 [4]) was 160 nM. It also gave an inhibition (DNA polymerase theta [5]) of 50%, an IC50 [6] of 900 nM and an IC50 (HCT-116) of 800 nM. For the same molecule, the IC50 (TERT-RPE1 [7]) was 450 nM and the IC50 (PC-3) was 60 nM.
`COc1cccc(-c2cc(C(=O)N[C@H]3CC[C@H](c4ccc(OC5CCNCC5)cc4)CC3)ccc2OC)c1` gave an inhibition (DNA polymerase theta [5]) of 70%.
`CN(C(=O)[C@@H]1CCCN1c1cc(C(F)(F)F)ccn1)c1ccc(F)cc1` showed an IC50 (DNA polymerase theta [8]) of under 200 nM.
`Cc1ccc(NC(=O)Nc2cncc(-c3ccc(OCC4(C)CCOC4)c(C)c3)n2)cn1` (centres undefined) gave an IC50 (DNA polymerase theta [9]) of 2 nM.
Work on `Cc1nc(NCC(=O)N(C)c2ccccc2)c(C#N)c(C)c1Cl` yielded an IC50 (DNA polymerase theta [8]) of under 200 nM.
Work on `CN(C(=O)[C@@H]1CCCN1c1cc(C(F)(F)F)cc(C(F)(F)F)n1)c1ccc(F)cc1` yielded an IC50 (DNA polymerase theta [2]) of at most 200 nM and an IC50 (DNA polymerase theta [3]) of at most 200 nM.
In the case of `N#Cc1c(C(F)(F)F)cc(C(F)(F)F)nc1NCc1nccn1-c1ccc(F)cc1`, the IC50 (DNA polymerase theta [10]) is reported as under 200 nM.
`Cc1cc(C(F)(F)F)cc(N2C(=O)OC[C@H]2c2nc(Cl)cn2-c2ccc(F)c(Cl)c2)n1` gave an IC50 (DNA polymerase theta [3]) of 5 nM.
Work on `Cc1cccc(N(C)C(=O)[C@@H]2CCCN2c2nc(C)cc(C(F)(F)F)c2C#N)c1` yielded an IC50 (DNA polymerase theta [8]) of under 200 nM.
In the case of `CO[C@@H]1[C@@H](OC(N)=O)[C@@H](O)[C@H](Oc2ccc3c(O)c(NC(=O)c4ccc(O)c(CC=C(C)C)c4)c(=O)oc3c2C)OC1(C)C` [NOVOBIOCIN], the IC50 (TERT-RPE1 [11]) is reported as 358000 nM, the IC50 (TERT-RPE1 [4]) is reported as 86000 nM and the “fold change (FC)” value (TERT-RPE1 [12]) is reported as 20. The IC50 (TERT-RPE1 [13]) was 97200 nM and the “fold change (FC)” value (TOV21G) was 40.
With `COc1ccccc1-c1cc(C)ncc1C(=O)Nc1nnc(OCc2ccc(Cl)cn2)s1` the IC50 (DNA polymerase theta [1]) was at most 200 nM.
For `Cc1cc(-c2nc(NC(=O)N[C@H]3CCCNC3)cs2)ccc1OC[C@]1(C)CCOC1`, the IC50 (DNA polymerase theta [9]) was 7 nM.
Molecule `CN(C(=O)CNc1nc(C(F)(F)F)cc(C(F)(F)F)c1C#N)c1ccc(F)cc1` has an IC50 (DNA polymerase theta [10]) of under 200 nM.
`Cc1nc(NCc2nccn2-c2ccccc2)c(C#N)c(C)c1Cl` showed an IC50 (DNA polymerase theta [8]) of under 200 nM.
